Patent US8389247B2, “Physiogenomic method for predicting diabetes and metabolic syndromes induced by psychotropic drugs” (priority 2006, dated 2013)

What was measured:
[1] = Source text: b. Model Building. […] A model was developed for the purpose of predicting a given response (Y) to psychotropic drugs. A linear model for subjects in a group of patients subjected to psychotropic drugs was used in which the response of interest can be expressed as follows:
[formula] where Mi are the dummy marker variables indicating the presence of specified genotypes and Dj are demographic and clinical covariates. The model parameters that are to be estimated from the data are R0, αi and βj. […] S-plus provides very good support for algorithms that provide these estimates for the initial linear regression models, as well other generalized linear models that may be used when the error distribution is not normal. For continuous variables, generalized additive models, including cubic splines in order to appropriately assess the form for the dose-response relationship may also be considered [Hastie T, Tibshirani R. Generalized additive models. Stat. Sci. 1: 297-318 (1986); Durrleman S, Simon R. Flexible regression models with cubic splines. Statistics in Medicine 8:551-561 (1989)].
In addition to optimizing the parameters, model refinement is performed. The first phase of the regression analysis will consist of considering a set of simplified models by eliminating each variable in turn and re-optimizing the likelihood function. The ratio between the two maximum likelihoods of the original vs. the simplified model then provides a significance measure for the contribution of each variable to the model.
Each physiotype in this particular embodiment consists of a selection of markers, and intercept value (C), and a coefficient (ci) for each marker. […] The predicted LDL response for a given individual is then given by the formula:
[formula] where C is the intercept, the ci are the coefficients and the gi are the genotypes, coded 0 for the wild type allele homozygote, 1 for the heterozygote, and 2 for the variant allele homozygote.

[2] = Physiogenomic SNP association screen: single-SNP coefficients for metabolic syndrome outcomes in patients on psychotropic drugs
Source text: Various SNPs associated with, for example, the observation of various parameters of metabolic syndromes in patients on psychotropic drugs were screened. The endpoints analyzed were the blood levels of LDL, HDL, and glucose; blood pressure; body mass index; waist circumference; and metabolic syndromes index. The physiogenomic model was developed using the following procedure: 1) Establish a covariate model using only the demographic and clinical variables, 2) Screen for associated genetic markers by testing each SNP against the unexplained residual of the covariate model, and 3) Establish a revised model incorporating the significant associations from the SNP screen. All models are simple linear regression models, but other well-known statistical methods are contemplated to be useful.
In the SNP screen (step 2), the p-values for each SNP were obtained by adding the SNP to the covariate model and comparing the resulting model improvement with up to 10,000 simulated model improvements using the same data set, but with the genotype data randomly permuted to remove any true association. This method produces a p-value that is a direct, unbiased, and model-free estimate of the probability of finding a model as good as the one tested when the null hypothesis of no association is true. All SNPs with a screening p-value of better than 0.003 were selected to be included in the physiogenomic model (step 3).
Data Analysis. Covariates were analyzed using multiple linear regression and the stepwise procedure. An extended linear model was constructed including the significant covariate and the SNP genotype. SNP genotype was coded quantitatively as a numerical variable indicating the number of minor alleles: 0 for major homozygotes, 1 for heterozygotes, and 2 for minor homozygotes. The F-statistic p-value for the SNP variable was used to evaluate the significance of association. The validity of the p-values were tested by performance of an independent calculation of the p-values using permutation testing. To account for the multiple testing of multiple SNPs, adjusted p-values were calculated using Benjamini and Hochbergs false discovery rate (FDR) procedure [Reinere A, Yekutiele D, Benjamini Y: Identifying differentially expressed genes using false discovery rate controlling procedures. Bioinformatics 19:368-375 (2003); Benjamini Y, Hochberg Y: Controlling the false discovery rate: a practical and powerful approach to multiple testing. Journal of the Royal Statistical Society, Series B 57:289-300 (1995); Benjamini Y, Hochberg Y: On the adaptive control of the false discovery rate in multiple testing with independent statistics. Journal of Educational and Behavioral Statistics 25:60-83 (2000)]. In addition, the power for detecting an association based on the Bonferroni multiple comparison adjustment was evaluated. For each SNP, the effect size in standard deviations that was necessary for detection of an association at a power of 80% (20% false negative rate) was calculated using the formula: […]

[3] = Outcome variables of patients on each psychotropic drug broken down by demographic factors (Covariates tables); assay type: in vivo, human
[4] = cited from earlier work

O=C1CCc2ccc(OCCCCN3CCN(c4cccc(Cl)c4Cl)CC3)cc2N1 [Arapiprazole, arapiprazole]
Intercept (C), Blood Glucose Physiotype [1]: Intercept (C) = 0.3665 | Intercept (C), Body Mass Physiotype [1]: Intercept (C) = 0.1845 | Intercept (C), Diastolic Blood Pressure Physiotype [1]: Intercept (C) = −0.05506 | Intercept (C), HDL Cholesterol Physiotype [1]: Intercept (C) = −0.3706 | Intercept (C), LDL Cholesterol Physiotype [1]: Intercept (C) = 0.2441 | Intercept (C), Log (TG) Physiotype [1]: Intercept (C) = 0.9167 | Intercept (C), Systolic Blood Pressure Physiotype [1]: Intercept (C) = −0.1862 | Intercept (C), Waist circumference Physiotype [1]: Intercept (C) = −0.888 | Coeff. LDL Cholesterol ([2]; SNP rs264 LPL allele AG p 3.00E−03): −26.5842 | Coeff. LDL Cholesterol ([2]; SNP rs7412 APOE allele TC p 1.42E−02): −26.3527 | Coeff. LDL Cholesterol ([2]; SNP rs140700 SLC6A4 allele AG p 1.76E−02): 34.06 | Coeff. LDL Cholesterol ([2]; SNP rs231460 PYY allele TC p 7.02E−03): −22.8702 | Coeff. LDL Cholesterol ([2]; SNP rs701492 GAD1 allele TC p 1.25E−04): −41.2222 | Coeff. LDL Cholesterol ([2]; SNP rs1057910 CYP2C9 allele AC p 9.03E−04): 25.75 | Coeff. LDL Cholesterol ([2]; SNP rs1176744 HTR3B allele TG p 2.77E−02): −14.3889 | Coeff. LDL Cholesterol ([2]; SNP rs1805002 CCKBR allele AG p 3.93E−02): −32.875 | Coeff. LDL Cholesterol ([2]; SNP rs1871143 GYS2 allele TG p 4.09E−02): −14.1588 | Coeff. LDL Cholesterol ([2]; SNP rs2070937 HP allele AG p 3.68E−02): 16.59 | Coeff. LDL Cholesterol ([2]; SNP rs2192752 IL1R1 allele AC p 3.35E−02): 19.88 | Coeff. LDL Cholesterol ([2]; SNP rs2227852 DRD5 allele AG p 1.36E−02): −28.1852 | Coeff. LDL Cholesterol ([2]; SNP rs2229416 ACACA allele AG p 1.41E−02): −29.2143 | Coeff. LDL Cholesterol ([2]; SNP rs2306179 GYS2 allele AG p 2.72E−02): −15.1786 | Coeff. LDL Cholesterol ([2]; SNP rs3760396 CCL2 allele GC p 4.10E−02): −15.8942 | Coeff. LDL Cholesterol ([2]; SNP rs3762611 GABRA4 allele AG p 1.49E−02): −18.7032 | Coeff. LDL Cholesterol ([2]; SNP rs3822222 CCKAR allele TC p 8.57E−03): 24.98 | Coeff. LDL Cholesterol ([2]; SNP rs4795180 ACACA allele TG p 1.41E−02): −29.2143 | Coeff. LDL Cholesterol ([2]; SNP rs5030390 ICAM1 allele AG p 1.30E−02): −27.8333 | Coeff. LDL Cholesterol ([2]; SNP rs7816340 ADRA1A allele TC p 4.36E−02): −25.5911 | Coeff. LDL Cholesterol ([2]; SNP rs9904270 RARA allele TC p 2.39E−03): −37.1182 | Coeff. LDL Cholesterol ([2]; SNP rs10509676 CYP2C19 allele TA p 1.50E−02): −24.25 | LDL ([3]; Age 20-30, N 8): 90.5 | LDL ([3]; Age 30-40, N 16): 97.19 | LDL ([3]; Age 40-50, N 8): 94.25 | LDL ([3]; Age 50-60, N 4): 83 | LDL ([3]; All, N 36): 93.47 | LDL ([3]; Heritage African Am, N 3): 104 | LDL ([3]; Heritage Caucasian, N 33): 92.52 | LDL ([3]; female, N 10): 87 | BM ([3]; human, in vivo): 86.58 | Waist ([3]; human, in vivo): 101.34 | dBP ([3]; human, in vivo): 75.86 | sBP ([3]; human, in vivo): 122.17 | LDL ([3]; male, N 26): 95.96 | LDL ([3]; patients on the named drug): 93.47

CN1CCN(C2=Nc3cc(Cl)ccc3Nc3ccccc32)CC1 [clozapine]
treated patients with induced weight gain, diabetes and other metabolic derangements [4]: 50%
